Measurements reported in US11275086B2 (priority 2010, dated 2022).
Where two headings read alike, the source gives them in different places.

Tested on: MTB specific T CD4+ lymphocytes
Type: cell-based, human
Conditions: for positive tests / evaluable subjects: Microbiologically checked TB patients (before therapy start) / positive tests / evaluable subjects: Recently MTB exposed subjects: anergic subjects excluded

Row | Substance | positive tests / evaluable subjects: BCG-vaccinated controls (BCG-vaccinated controls) | positive tests / evaluable subjects: Microbiologically checked TB patients (before therapy start) | positive tests / evaluable subjects: Recently MTB exposed subjects | positive tests / evaluable subjects: Sanitary workers | positive tests / evaluable subjects: BCG-vaccinated controls | sensitivity compared with ESAT-6 derived control peptide (result in words)
1 | GEIIFISGRLNGaa (GEIIFISGRLNGAA; listed as Mycobacterium tuberculosis) [Peptide #5, peptide of Rv0724A] | 0/15 | 18/55 | 11/61 | 5/21 |  | 
2 | AVIVRSELLTQYL (listed as Mycobacterium tuberculosis) [Peptide #2, peptide of Rv1251c] | 0/15 | 11/55 | 8/61 | 1/21 |  | 
3 | GSVRQLPSVLKPPLITLRTLTLSG (listed as Mycobacterium tuberculosis) [Peptide #3, peptide of Rv3479] |  | 27/55 | 20/61 | 7/21 | 0/15 | elevated sensitivity comparable, if not more elevated, to multiepitope ESAT-6 protein derived control peptide
4 | RPVRRVLLFVVPSSGPAP (listed as Mycobacterium tuberculosis) [Peptide #4, peptide of Rv3479] |  | 10/55 | 13/61 | 6/21 | 0/15 | 
5 | TAWITAVVPGLMV (listed as Mycobacterium tuberculosis) [Peptide #1, peptide of Rv1478 (Consensus VIR)] |  | 12/55 | 14/61 | 6/21 | 0/15 | 
6 | ELMARAAVLGSAH (listed as Mycobacterium tuberculosis) [Peptide #6, peptide of Rv1251c] | 0/15 | 14/55 | 6/61 | 3/21 |  | 
